Test results reported in article PMC9505031, “Implementation of QbD Approach to the Development of Chromatographic Methods for the Determination of Complete Impurity Profile of Substance on the Preclinical and Clinical Step of Drug Discovery Studies” (International Journal of Molecular Sciences, 2022).
Where two headings read alike, the source gives them in different places.

Key:
[1] = Chromatographic hydrophobicity index CHI logD determination (UltraCore SuperC18 column); format: physicochemical
Excerpt: Due to this observation and to better characterise elution conditions for method development, it was decided to determine the chromatographic hydrophobicity index CHI logD of CPL409116 and its impurities by the methodology described by Valko et al.. Chromatographic hydrophobicity index CHI logD has been originally used for high-throughput physicochemical property profiling for rational drug design, where determined values strongly correlate to lipophilicity (logP and/or logD) of molecules.
On a basis of determining lipophilicity described by CHI logD at pH 2.6, 7.4 and 10.5 on ACE Ultracore SuperC18 column more valuable data were obtained in a contest of chromatography interactions molecules with stationary phase extended with their acid-base properties (Table 1). Particularly, strong pH dependence on retention factors has been observed for JAK ImpC and also for JAK07, JAK08, and JAK09. Greater differences and a wider range of CHI logD values, calculated on a base of peaks retention times of compounds, in the lower pH range than in the pH 7.4–10.5 range have been observed. The use of mobile phases with a lower pH would allow obtaining higher chromatographic resolutions and higher selectivity of the analytical method.
For the CHI logD determination, separate solutions of all the tested sample were prepared at a concentration of 1 mM in DMSO. Reference mix solutions have a concentration of 1 mM in DMSO.
The CHI logD for JAK01 and its impurities was determined on an UltraCore 2.5 SuperC18 (2.1 × 50 mm, 2.5 µm, ACE) column with eluent A consisting of formic acid (10 mM, pH 2.6), and ammonium acetate (50 mM) buffers with different concentrations of additives were used to prepare buffer solutions of 7.4, and 10.5, and eluent B consisted ACN [58].

[2] = Solubility in aqueous solutions; format: physicochemical

SMILES: COc1cccc(-c2cc3ncc(C(N)=O)c(N[C@@H]4CCN(c5ccc(C#N)nn5)CC4(C)C)n3n2)n1 [CPL409116]
- chromatographic logD ([1]; pH 2.6, 10 mM formic acid/ACN, read-out: CHILogD pH 2.6): 3.51
- chromatographic logD ([1]; pH 7.4, 50 mM ammonium acetate/ACN, read-out: CHILogD pH 7.4): 3.09
- chromatographic logD ([1]; pH 10.5, 50 mM ammonium acetate/ACN, read-out: CHILogD pH 10.5): 3.05
- Solubility in aqueous solutions ([2]; aqueous solutions): practically insoluble
- solubility ([2]; pH 7.4, aqueous buffer, phosphate buffer with a pH of 7.4): < 0.1 µg/mL
